The source of these data is paper PMC1069517 (Nucleic Acids Research, 2005).

One data set concerns the target T1, a/eIF2 α–γ dimer (Saccharolobus solfataricus, UniProt Q980A5).
T1 sequence (Q980A5 1-415): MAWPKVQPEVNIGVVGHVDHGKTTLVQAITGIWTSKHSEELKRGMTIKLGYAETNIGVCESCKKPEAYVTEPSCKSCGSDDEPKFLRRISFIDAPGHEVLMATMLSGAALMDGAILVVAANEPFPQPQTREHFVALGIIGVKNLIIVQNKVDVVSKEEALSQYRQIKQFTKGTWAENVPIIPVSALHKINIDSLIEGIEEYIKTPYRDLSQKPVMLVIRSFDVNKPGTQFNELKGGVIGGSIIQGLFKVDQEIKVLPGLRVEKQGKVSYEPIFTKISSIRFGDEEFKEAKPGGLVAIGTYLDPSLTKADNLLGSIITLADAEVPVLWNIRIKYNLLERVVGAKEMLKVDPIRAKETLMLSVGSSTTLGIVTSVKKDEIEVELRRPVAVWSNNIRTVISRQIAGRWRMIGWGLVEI
T1 sequence (Q97Z79 1-266 partner): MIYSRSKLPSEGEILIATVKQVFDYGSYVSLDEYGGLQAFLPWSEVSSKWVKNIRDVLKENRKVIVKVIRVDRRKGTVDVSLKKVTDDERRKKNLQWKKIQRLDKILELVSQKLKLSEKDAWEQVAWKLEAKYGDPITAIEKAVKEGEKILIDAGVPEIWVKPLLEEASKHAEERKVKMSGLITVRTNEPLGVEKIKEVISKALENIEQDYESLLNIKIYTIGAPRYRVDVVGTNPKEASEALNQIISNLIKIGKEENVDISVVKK
Put plainly: nitrocellulose filter binding. The settings on record: 65 °C, 30 mM KCl, 50 mM HEPES pH 7.5, 0.5 mM MgCl2, 1 mM DTT; labelled compound.

For another data set, the target named is T2, a/eIF2 β–γ dimer (Saccharolobus solfataricus, UniProt Q980A5).
T2 sequence (Q980A5 1-415): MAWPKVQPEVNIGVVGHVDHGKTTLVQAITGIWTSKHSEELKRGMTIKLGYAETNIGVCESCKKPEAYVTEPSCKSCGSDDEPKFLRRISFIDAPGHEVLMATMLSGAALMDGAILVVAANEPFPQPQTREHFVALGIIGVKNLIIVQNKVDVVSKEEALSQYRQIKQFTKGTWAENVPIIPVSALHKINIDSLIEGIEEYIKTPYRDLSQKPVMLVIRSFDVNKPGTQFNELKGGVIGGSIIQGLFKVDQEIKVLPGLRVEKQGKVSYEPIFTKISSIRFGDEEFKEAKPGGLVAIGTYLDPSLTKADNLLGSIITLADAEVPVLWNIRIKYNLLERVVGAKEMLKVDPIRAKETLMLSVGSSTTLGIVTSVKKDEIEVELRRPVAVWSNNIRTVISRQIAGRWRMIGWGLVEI
T2 sequence (Q97W59 1-139 partner): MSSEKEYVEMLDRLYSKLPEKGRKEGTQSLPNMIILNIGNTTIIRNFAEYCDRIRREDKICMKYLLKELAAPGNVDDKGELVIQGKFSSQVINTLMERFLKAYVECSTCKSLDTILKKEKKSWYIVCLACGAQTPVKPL
Put plainly: nitrocellulose filter binding. Conditions: 65 °C, 30 mM KCl, 50 mM HEPES pH 7.5, 0.5 mM MgCl2, 1 mM DTT; labelled compound.

The target of data set [1] is T3, a/eIF2 alpha subunit;a/eIF2 beta subunit;a/eIF2 gamma subunit (Saccharolobus (Sulfolobus) …, UniProt Q97Z79;Q97W59;Q980A5 1-266;1-139;1-415, ||).
T3 sequence 1: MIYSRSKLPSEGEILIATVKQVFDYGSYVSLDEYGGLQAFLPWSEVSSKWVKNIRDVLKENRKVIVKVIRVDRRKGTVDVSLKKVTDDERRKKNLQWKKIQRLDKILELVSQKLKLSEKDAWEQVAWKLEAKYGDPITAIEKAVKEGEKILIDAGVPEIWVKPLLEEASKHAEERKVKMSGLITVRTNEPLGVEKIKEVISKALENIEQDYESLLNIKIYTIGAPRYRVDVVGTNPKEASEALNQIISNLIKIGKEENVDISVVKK
T3 sequence 2: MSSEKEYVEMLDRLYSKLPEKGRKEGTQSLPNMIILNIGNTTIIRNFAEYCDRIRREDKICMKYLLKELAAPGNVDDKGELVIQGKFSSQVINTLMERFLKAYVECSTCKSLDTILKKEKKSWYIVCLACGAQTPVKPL
T3 sequence 3: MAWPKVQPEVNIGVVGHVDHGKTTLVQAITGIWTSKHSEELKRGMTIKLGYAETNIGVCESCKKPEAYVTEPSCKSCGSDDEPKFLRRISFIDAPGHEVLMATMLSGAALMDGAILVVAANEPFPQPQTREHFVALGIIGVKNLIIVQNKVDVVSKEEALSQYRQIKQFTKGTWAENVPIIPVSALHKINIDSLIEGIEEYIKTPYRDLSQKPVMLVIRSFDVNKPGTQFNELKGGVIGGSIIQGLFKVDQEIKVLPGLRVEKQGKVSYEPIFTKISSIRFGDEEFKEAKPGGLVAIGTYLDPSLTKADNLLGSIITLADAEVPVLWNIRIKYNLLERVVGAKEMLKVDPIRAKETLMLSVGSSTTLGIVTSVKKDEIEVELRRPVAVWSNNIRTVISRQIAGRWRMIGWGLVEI
Kind of data set: filter binding.

Data set [2] addresses T4, a/eIF2 alpha subunit;a/eIF2 gamma subunit (Saccharolobus (Sulfolobus) …, UniProt Q97Z79;Q980A5 1-266;1-415, |).
T4 sequence 1: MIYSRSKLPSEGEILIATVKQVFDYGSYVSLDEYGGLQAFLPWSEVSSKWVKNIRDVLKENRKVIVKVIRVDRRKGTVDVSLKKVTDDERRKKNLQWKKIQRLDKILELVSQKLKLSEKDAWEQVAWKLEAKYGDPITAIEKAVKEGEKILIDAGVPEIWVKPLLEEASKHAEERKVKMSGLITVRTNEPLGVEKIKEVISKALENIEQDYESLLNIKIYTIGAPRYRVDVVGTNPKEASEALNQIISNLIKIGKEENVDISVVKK
T4 sequence 2: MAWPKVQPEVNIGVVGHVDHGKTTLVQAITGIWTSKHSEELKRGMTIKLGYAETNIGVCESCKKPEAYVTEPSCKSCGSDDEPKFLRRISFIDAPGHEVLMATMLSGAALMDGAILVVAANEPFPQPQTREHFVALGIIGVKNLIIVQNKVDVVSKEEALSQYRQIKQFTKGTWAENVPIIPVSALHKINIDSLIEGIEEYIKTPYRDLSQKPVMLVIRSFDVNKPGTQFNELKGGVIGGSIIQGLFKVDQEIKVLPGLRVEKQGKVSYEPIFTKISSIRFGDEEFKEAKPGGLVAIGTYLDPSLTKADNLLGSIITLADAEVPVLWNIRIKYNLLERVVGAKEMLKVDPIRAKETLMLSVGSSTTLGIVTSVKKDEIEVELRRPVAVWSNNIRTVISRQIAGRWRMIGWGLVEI
Put plainly: filter binding.

On to `Nc1nc2c(ncn2[C@@H]2O[C@H](COP(=O)(O)OP(=O)(O)O)[C@@H](O)[C@H]2O)c(=O)[nH]1` [GDP], for which the nitrocellulose filter binding result at a/eIF2 α–γ dimer is “displayed GDP and GTP binding curves essentially overlapping with those obtained with the γ-subunit alone”; on a/eIF2 β–γ dimer, “displayed GDP and GTP binding curves essentially overlapping with those obtained with the γ-subunit alone”.

On to `Nc1nc2c(ncn2[C@@H]2O[C@H](COP(=O)(O)OP(=O)(O)OP(=O)(O)O)[C@@H](O)[C@H]2O)c(=O)[nH]1` [GTP], for which the nitrocellulose filter binding entry was “displayed GDP and GTP binding curves essentially overlapping with those obtained with the γ-subunit alone” at a/eIF2 α–γ dimer; “displayed GDP and GTP binding curves essentially overlapping with those obtained with the γ-subunit alone” on a/eIF2 β–γ dimer.

B1: [35S]Met-tRNAi (structured_RNA)
RNA: AGCGGGGUGGGCUAGCCUGGUAAGGCCGCGGGGCUCAUAACCCCGAGGUCCCUGGUUCAAAUCCAGGCCCCGCUACCA
modifications: 3' aminoacylated with methionine; no base modifications (in vitro transcript)
Consider B1, for which the binding result in data set [1] and in data set [2] was “binds” throughout.
